Laboratory results published in patent US6472381B1, “Method of treating psoriasis” (Biomas Inc., priority 2001, dated 2002).

Tested on: psoriasis
Experiment: Separate tests of the single agents for treating psoriasis
Format: in vivo, human
Settings: agent used alone
Excerpt: Salicylic acid alone was ineffective.

| SMILES | efficacy for treating psoriasis |
| --- | --- |
| Cl[Te]1(Cl)(Cl)OCCO1.N [ammonium trichloro (dioxoethylene-O,O′) tellurate] | effective for treating psoriasis but worked very slowly |
| O=C(O)c1ccccc1O [Salicylic acid, salicylic acid] | ineffective |
